Article PMC10381184, “Unprecedented Antimicrobial and Cytotoxic Polyketides from Cultures of Diaporthe africana sp. nov” (Journal of Fungi, 2023)
Values after ≈ are worked out from the molar mass of the structure shown. Like-named read-outs stand apart in the source and are kept apart here. Marks after values point to notes of the source that are not given here.

How the values were obtained:
[1] = tested on: Acinetobacter baumannii DSM 30008; experiment: MIC serial dilution assay; assay type: cell-based; design: key: (-): No inhibition; details: Acinetobacter baumanii; starting concentration 66.7 μg/mL
Protocol: (§1) The Minimum Inhibitory Concentration (MIC) of the isolated metabolites (1–8) was evaluated using serial dilution assays in a 96-well microtiter plate against a panel of Gram-positive bacteria, namely Bacillus subtilis DSM 10, Mycobacterium smegmatis ATCC 700084 and Staphylococcus aureus DSM 346; Gram-negative bacteria, including Acinetobacter baumannii DSM 30008, Chromobacterium violaceum DSM 30191, Escherichia coli DSM 1116 and Pseudomonas aeruginosa PA14 and fungal cultures of Candida albicans DSM 1665, Mucor hiemalis DSM 2656, Rhodotorula glutinis DSM 10134, Schizosaccharomyces pombe DSM 70572 and Wickerhamomyces anomalus DSM 6766, according to previously described protocols. The MTT-based cytotoxicity assay was performed against several cancer cell lines (human endocervical adenocarcinoma KB 3.1, mouse fibroblasts L929, squamous cancer A431, breast cancer MCF-7, lung cancer A549, ovary cancer SK-OV-3, and prostate cancer PC-3) in accordance with our previously established protocols.

Bacillus subtilis DSM 10 = experiment: MIC serial dilution assay; assay type: cell-based; design: key: (-): No inhibition
Protocol: as §1

[2] = tested on: Candida albicans DSM 1665; experiment: MIC serial dilution assay; assay type: cell-based; design: key: (-): No inhibition; details: starting concentration 66.7 μg/mL
Protocol: as §1

[3] = tested on: Chromobacterium violaceum DSM 30191; experiment: MIC serial dilution assay; assay type: cell-based; design: key: (-): No inhibition; details: starting concentration 66.7 μg/mL
Protocol: as §1

[4] = tested on: Escherichia coli DSM 1116; experiment: MIC serial dilution assay; assay type: cell-based; design: key: (-): No inhibition; details: starting concentration 66.7 μg/mL
Protocol: as §1

Mucor hiemalis DSM 2656 = experiment: MIC serial dilution assay; assay type: cell-based; design: key: (-): No inhibition
Protocol: as §1

[5] = tested on: Mycobacterium smegmatis ATCC 700084; experiment: MIC serial dilution assay; assay type: cell-based; design: key: (-): No inhibition
Protocol: as §1

[6] = tested on: Pseudomonas aeruginosa PA14; experiment: MIC serial dilution assay; assay type: cell-based; design: key: (-): No inhibition
Protocol: as §1

[7] = tested on: Rhodotorula glutinis DSM 10134; experiment: MIC serial dilution assay; assay type: cell-based; design: key: (-): No inhibition; details: Rhodoturula glutinis; starting concentration 66.7 μg/mL
Protocol: as §1

[8] = tested on: Schizosaccharomyces pombe DSM 70572; experiment: MIC serial dilution assay; assay type: cell-based; design: key: (-): No inhibition; details: starting concentration 66.7 μg/mL
Protocol: as §1

[9] = tested on: Staphylococcus aureus DSM 346; experiment: MIC serial dilution assay; assay type: cell-based; design: key: (-): No inhibition
Protocol: as §1

[10] = tested on: Wickerhamomyces anomalus DSM 6766; experiment: MIC serial dilution assay; assay type: cell-based; design: key: (-): No inhibition; details: starting concentration 66.7 μg/mL
Protocol: as §1

breast cancer MCF-7 = experiment: MTT-based cytotoxicity assay; assay type: cell-based
Protocol: as §1

[11] = tested on: human endocervical adenocarcinoma KB 3.1; experiment: MTT-based cytotoxicity assay; assay type: cell-based
Protocol: as §1

lung cancer A549 = experiment: MTT-based cytotoxicity assay; assay type: cell-based
Protocol: as §1

mouse fibroblasts L929 = experiment: MTT-based cytotoxicity assay; assay type: cell-based
Protocol: as §1

ovary cancer SK-OV-3 = experiment: MTT-based cytotoxicity assay; assay type: cell-based
Protocol: as §1

prostate cancer PC-3 = experiment: MTT-based cytotoxicity assay; assay type: cell-based
Protocol: as §1

squamous cancer A431 = experiment: MTT-based cytotoxicity assay; assay type: cell-based
Protocol: as §1

MptpB = details: result in words; ref 63 (Cui et al.); cited from earlier work
[12] = starting concentration 66.7 μg/mL
[13] = PC-3, starting concentration 37 µg/mL, read-out: IC50
[14] = starting concentration 37 µg/mL, read-out: IC50

## CCC(C)C=C(C)C=CC1=CC2=C(Cl)C(=O)C3(C)OC(=O)C(C(C)O)C3C2=CO1 (stereo not shown) [Compound 7, isochromophilonol A1/A2]
[1]
  MIC: -
Bacillus subtilis DSM 10; DSM10, starting concentration 66.7 μg/mL, read-out: MIC
  MIC: 16.6 µg/mL (≈ 39.6 µM)
[2]
  MIC: -
[3]
  MIC: -
[4]
  MIC: -
Mucor hiemalis DSM 2656; DSM2656, starting concentration 66.7 μg/mL, read-out: MIC
  MIC: 8.3 µg/mL (≈ 19.8 µM)
[5]; Mycolicibacterium smegmatis, ATCC700084, starting concentration 66.7 μg/mL, read-out: MIC
  MIC: 16.6 µg/mL (≈ 39.6 µM)
[6]; [12]
  MIC: -
[7]
  MIC: -
[8]
  MIC: -
[9]; DSM346, starting concentration 66.7 μg/mL, read-out: MIC
  MIC: 66.6 µg/mL (≈ 159 µM)
[10]
  MIC: -
Breast cancer MCF-7; Homo sapiens, MCF7, MCF-7, starting concentration 37 µg/mL, read-out: IC50
  IC50: 900 nM
[11]; Homo sapiens, KB 3-1, KB3.1, starting concentration 37 µg/mL, read-out: IC50
  IC50: 5300 nM
Lung cancer A549; Homo sapiens, starting concentration 37 µg/mL, read-out: IC50
  IC50: 2300 nM
Mouse fibroblasts L929; Mus musculus, starting concentration 37 µg/mL, read-out: IC50
  IC50: 12900 nM
Ovary cancer SK-OV-3; Homo sapiens, SK-OV-3, SKOV-3, starting concentration 37 µg/mL, read-out: IC50
  IC50: 3300 nM
Prostate cancer PC-3; [13]
  IC50: 1100 nM
Squamous cancer A431; Homo sapiens, A-431, A431, starting concentration 37 µg/mL, read-out: IC50
  IC50: 4100 nM

## C/C(=C\c1csc(C)n1)[C@@H]1C[C@@H]2O[C@]2(C)CCC[C@H](C)[C@H](O)[C@@H](C)C(=O)C(C)(C)[C@@H](O)CC(=O)O1 [Epothilone B, reference compound]
Breast cancer MCF-7; Homo sapiens, MCF7
  IC50: 0.061 nM
[11]; Homo sapiens, KB 3-1
  IC50: 0.045 nM
Lung cancer A549; Homo sapiens
  IC50: 0.069 nM
Mouse fibroblasts L929; Mus musculus
  IC50: 0.43 nM
Ovary cancer SK-OV-3; Homo sapiens, SK-OV-3
  IC50: 0.099 nM
Prostate cancer PC-3
  IC50: 0.073 nM
Squamous cancer A431; Homo sapiens, A-431
  IC50: 0.055 nM

## CNC(C)C1CCC(N)C(OC2C(N)CC(N)C(OC3OCC(C)(O)C(NC)C3O)C2O)O1 (stereo not shown) [Gentamicin, reference compound]
[6]; PA14, starting concentration 66.7 μg/mL, read-out: MIC
  MIC: 0.21 µg/mL (≈ 0.44 µM)

## NC[C@H]1O[C@H](O[C@H]2[C@H](O)[C@@H](O[C@H]3O[C@H](CO)[C@@H](O)[C@H](N)[C@H]3O)[C@H](N)C[C@@H]2N)[C@H](O)[C@@H](O)[C@@H]1O [Kanamycin, reference compound]
[5]; [12]
  MIC: 1.7 ^k µg/mL

## C[C@@H]1[C@H](O)[C@@H](C)/C=C/C=C/CC/C=C/C=C/C=C/C=C/C(O[C@H]2O[C@H](C)[C@@H](O)[C@H](N)[C@@H]2O)CC2O[C@](O)(CC(O)C(O)CCC(O)CC(O)CC(O)CC(=O)O[C@H]1C)CC(O)C2C(=O)O (stereo partly shown) [Nystatin, reference compound]
[2]
  MIC: 16.6 ^n µg/mL
Mucor hiemalis DSM 2656; [12]
  MIC: 8.3 ^n µg/mL
Mucor hiemalis DSM 2656; starting concentration 66.7 μg/mL, listed as nystatin
  MIC: 8.3 µg/mL (≈ 8.96 µM)
[7]
  MIC: 4.2 ^n µg/mL
[8]
  MIC: 8.3 ^n µg/mL
[10]
  MIC: 8.3 ^n µg/mL

## CN(C)[C@@H]1C(=O)C(C(N)=O)=C(O)[C@@]2(O)C(=O)C3=C(O)c4c(O)cccc4[C@@](C)(O)[C@H]3[C@H](O)[C@@H]12 [Oxytetracyclin, reference compound]
Bacillus subtilis DSM 10; [12]
  MIC: 8.3 ^o µg/mL
[3]
  MIC: 0.83 ^o µg/mL
[4]
  MIC: 1.7 ^o µg/mL
[9]; [12]
  MIC: 0.83 ^o µg/mL

## CC(C)=CCc1ccc(O)c2c1[C@@H](c1cc(C)cc3c1O[C@H](C(C)(C)O)CO3)NC2=O [diaporisoindole A]
MptpB
  inhibitory activity against MptpB: potent inhibitory activity

## beauvericin [Compound 8]
[1]
  MIC: -
Bacillus subtilis DSM 10; [12]
  MIC: 8.3 µg/mL
[2]
  MIC: -
[3]
  MIC: -
[4]
  MIC: -
Mucor hiemalis DSM 2656; [12]
  MIC: 66.6 µg/mL
[5]; [12]
  MIC: 8.3 µg/mL
[6]; [12]
  MIC: -
[7]
  MIC: 66.6 µg/mL
[8]
  MIC: 33.3 µg/mL
[9]; [12]
  MIC: 8.3 µg/mL
[10]
  MIC: -
Breast cancer MCF-7; MCF-7, starting concentration 37 µg/mL, read-out: IC50
  IC50: 2000 nM
[11]; KB3.1, starting concentration 37 µg/mL, read-out: IC50
  IC50: 2300 nM
Lung cancer A549; [14]
  IC50: 2600 nM
Mouse fibroblasts L929; [14]
  IC50: 2800 nM
Ovary cancer SK-OV-3; SKOV-3, starting concentration 37 µg/mL, read-out: IC50
  IC50: 3300 nM
Prostate cancer PC-3; [13]
  IC50: 1900 nM
Squamous cancer A431; A431, starting concentration 37 µg/mL, read-out: IC50
  IC50: 2400 nM
